# Measured values published in ChEMBL document CHEMBL5344412, “Dual degradation mechanism of GPX4 degrader in induction of ferroptosis exerting anti-resistant tumor effect” (Eur J Med Chem, 2023).
# Activity calls are given as the source filed them. No cut-off for these calls is given here.
# Tests used:
# [1] = biological target: T1, Phospholipid hydroperoxide glutathione peroxidase GPX4 (Homo sapiens) (UniProt P36969); test: Induction of GPX4 degradation in human HT-1080 cells at 100 nM incubated for 6 hrs relative to control; assay type: cell-based
# T1 sequence (whole entry): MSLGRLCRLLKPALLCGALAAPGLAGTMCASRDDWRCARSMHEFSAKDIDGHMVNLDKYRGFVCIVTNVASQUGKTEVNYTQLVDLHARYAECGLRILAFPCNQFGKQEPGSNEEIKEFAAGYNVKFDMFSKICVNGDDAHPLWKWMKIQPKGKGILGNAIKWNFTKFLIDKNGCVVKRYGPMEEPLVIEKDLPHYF
# [2] = tested on: Calu-1; test: Antiproliferative activity against human Calu-1 cells assessed as inhibition of cell growth incubated for 24 hrs by MTT assay; assay type: functional, cell-based; conditions: Calu-1, 24 h
# [3] = biological target: T1, Phospholipid hydroperoxide glutathione peroxidase GPX4 (Homo sapiens); test: Induction of GPX4 degradation in human HT-1080 cells at 0.1 uM incubated for 6 hrs in presence of […] by Western blot analysis; assay type: cell-based
# [4] = Antiproliferative activity against human Gefitinib-resistant H1650 cell assessed as inhibition of cell growth incubated for 24 hrs by MTT assay; assay type: functional, cell-based
# [5] = biological target: T1, Phospholipid hydroperoxide glutathione peroxidase GPX4 (Homo sapiens); test: Induction of GPX4 degradation in human HT-1080 cells at 0.1 uM incubated for 6 hrs in presence of PYR41 by Western blot analysis; assay type: cell-based
# [6] = biological target: T1, Phospholipid hydroperoxide glutathione peroxidase GPX4 (Homo sapiens); test: Induction of GPX4 degradation in human HT-1080 cells at 0.1 uM incubated for 24 hrs in presence of 20 uM of liproxstatin-1 by Western blot analysis; assay type: cell-based
# [7] = tested on: HT-1080; test: Antiproliferative activity against human HT-1080 cells assessed as inhibition of cell growth incubated for 24 hrs by MTT assay; assay type: functional, cell-based; conditions: HT-1080, 24 h
# [8] = tested on: NCI-H1650; test: Antiproliferative activity against human NCI-H1650 cells assessed as inhibition of cell growth incubated for 24 hrs by MTT assay; assay type: functional, cell-based; conditions: NCI-H1650, 24 h
# [9] = biological target: T1, Phospholipid hydroperoxide glutathione peroxidase GPX4 (Homo sapiens); test: Induction of GPX4 degradation in human HT-1080 cells at 0.1 uM by Western blot analysis; assay type: cell-based
# [10] = biological target: T1, Phospholipid hydroperoxide glutathione peroxidase GPX4 (Homo sapiens); test: Induction of GPX4 degradation in human HT-1080 cells at 0.1 uM measured for 6 hrs by Western blot analysis; assay type: cell-based
# [11] = tested on: HT-1080; test: Induction of ferroptosis in human HT-1080 cells assessed as increase in cell survival at 0.1 uM incubated for 24 hrs in presence of 0.061 uM of liproxstatin-1 by MTT assay; assay type: functional
# [12] = biological target: T1, Phospholipid hydroperoxide glutathione peroxidase GPX4 (Homo sapiens); test: Induction of GPX4 degradation in human NCI-H1650 cells at 0.3 uM incubated for 24 hrs by Western blot analysis; assay type: cell-based
# [13] = tested on: HT-1080; test: Induction of ROS production in human HT-1080 cells assessed as increase in ROS positive cells at 0.1 uM preincubated with liproxstatin-1 for 2 hrs followed by compound addition and measured after for 7 hrs by C11-BODIPY581/891 staining based flow cytometry analysis; assay type: functional, cell-based
# [14] = biological target: T1, Phospholipid hydroperoxide glutathione peroxidase GPX4 (Homo sapiens); test: Induction of GPX4 degradation in human HT-1080 cells at 0.1 uM measured for 24 hrs by Western blot analysis; assay type: cell-based
# [15] = tested on: HT-1080; test: Induction of ferroptosis in human HT-1080 cells assessed as increase in cell survival at 0.1 uM incubated for 24 hrs in presence of 0.185 uM of liproxstatin-1 by MTT assay; assay type: functional
# [16] = biological target: T1, Phospholipid hydroperoxide glutathione peroxidase GPX4 (Homo sapiens); test: (§1) Induction of GPX4 degradation in human Calu-1 cells measured for 24 hrs by Western blot analysis; assay type: cell-based; conditions: dose 0.1-10000 nM
# [17] = biological target: T2, Phospholipid hydroperoxide glutathione peroxidase GPX4 (Homo sapiens, UniProt P36969); test: as §1; assay type: cell-based
# T2 sequence (P36969 whole entry): T1 sequence (whole entry)
# [18] = biological target: T1, Phospholipid hydroperoxide glutathione peroxidase GPX4 (Homo sapiens); test: (§2) Induction of GPX4 degradation in human NCI-H1650 cells incubated for 24 hrs by Western blot analysis; assay type: cell-based; conditions: dose 10-1000 nM
# [19] = biological target: T2, Phospholipid hydroperoxide glutathione peroxidase GPX4; test: as §2; assay type: cell-based
# [20] = biological target: T1, Phospholipid hydroperoxide glutathione peroxidase GPX4 (Homo sapiens); test: Induction of GPX4 degradation in human HT-1080 cells at 0.1 uM measured for 1 hr by Western blot analysis; assay type: cell-based
# [21] = biological target: T1, Phospholipid hydroperoxide glutathione peroxidase GPX4 (Homo sapiens); test: (§3) Induction of GPX4 degradation in human Gefitinib-resistant H1650 cells incubated for 24 hrs by Western blot analysis; assay type: cell-based; conditions: Gefitinib-resistant H1650 cell, dose 10-1000 nM
# [22] = biological target: T2, Phospholipid hydroperoxide glutathione peroxidase GPX4; test: as §3; assay type: cell-based, Gefitinib-resistant H1650 cell
# [23] = tested on: HT-1080; test: Induction of ferroptosis in human HT-1080 cells assessed as increase in cell survival at 0.1 uM incubated for 24 hrs in presence of 5 uM of liproxstatin-1 by MTT assay; assay type: functional
# [24] = biological target: T1, Phospholipid hydroperoxide glutathione peroxidase GPX4 (Homo sapiens); test: (§4) Induction of GPX4 degradation in human HT-1080 cells measured for 6 hrs by Western blot analysis; assay type: cell-based; conditions: dose 0.3-1000 nM
# [25] = biological target: T2, Phospholipid hydroperoxide glutathione peroxidase GPX4; test: as §4; assay type: cell-based
# [26] = tested on: HT-1080; test: Induction of ferroptosis in human HT-1080 cells assessed as increase in cell survival at 0.1 uM incubated for 24 hrs in presence of 0.006 uM of liproxstatin-1 by MTT assay; assay type: functional
# [27] = biological target: T1, Phospholipid hydroperoxide glutathione peroxidase GPX4 (Homo sapiens); test: Induction of GPX4 degradation in human Calu-1 cells at 0.3 uM measured for 8 hrs by Western blot analysis; assay type: cell-based
# [28] = Toxicity in Balb/c nude mouse xenografted with human HT-1080 cells assessed as change in body weight at 200 mg/kg, sc measured for 16 days; assay type: organism-based; conditions: in vivo, 384 h, time 16 day
# [29] = tested on: HT-1080; test: Induction of ferroptosis in human HT-1080 cells assessed as increase in cell survival at 0.1 uM incubated for 24 hrs in presence of 0.556 uM of liproxstatin-1 by MTT assay; assay type: functional
# [30] = tested on: HT-1080; test: Induction of ferroptosis in human HT-1080 cells assessed as increase in cell survival at 0.1 uM incubated for 24 hrs in presence of 0.020 uM of liproxstatin-1 by MTT assay; assay type: functional
# [31] = biological target: T1, Phospholipid hydroperoxide glutathione peroxidase GPX4 (Homo sapiens); test: Induction of GPX4 degradation in human HT-1080 cells at 0.1 uM incubated for 24 hrs in presence of Baf-A1 by Western blot analysis; assay type: cell-based
# [32] = biological target: T1, Phospholipid hydroperoxide glutathione peroxidase GPX4 (Homo sapiens); test: Induction of GPX4 degradation in human HT-1080 cells at 0.1 uM pretreated for 2 hrs followed by V5 addition and measured after 6 hrs by Western blot analysis; assay type: cell-based; conditions: time 8.0 hrs
# [33] = tested on: HT-1080; test: Induction of ferroptosis in human HT-1080 cells assessed as increase in cell survival at 0.1 uM incubated for 24 hrs in presence of 1.670 uM of liproxstatin-1 by MTT assay; assay type: functional
# [34] = biological target: T1, Phospholipid hydroperoxide glutathione peroxidase GPX4 (Homo sapiens); test: Induction of GPX4 degradation in human HT-1080 cells at 0.1 uM incubated for 24 hrs in presence of ZVF by Western blot analysis; assay type: cell-based
# [35] = biological target: T1, Phospholipid hydroperoxide glutathione peroxidase GPX4 (Homo sapiens); test: Induction of GPX4 degradation in human HT-1080 cells at 0.1 uM incubated for 24 hrs in presence of Nec-1 by Western blot analysis; assay type: cell-based
# [36] = tested on: HT-1080; test: Induction of ROS production in human HT-1080 cells assessed as increase in ROS positive cells at 0.1 uM incubated for 4 hrs by C11-BODIPY581/891 staining based flow cytometry analysis; assay type: functional, cell-based
# [37] = biological target: T1, Phospholipid hydroperoxide glutathione peroxidase GPX4 (Homo sapiens); test: Induction of GPX4 degradation in human Calu-1 cells at 0.3 uM measured for 4 hrs by Western blot analysis; assay type: cell-based
compound,measurement,setting,value
COC(=O)[C@H]1Cc2c([nH]c3ccccc23)[C@H](c2ccc(C(=O)N3CCN(CCCCCCCCCCCCCCN[C@H](C(=O)N4C[C@H](O)C[C@H]4C(=O)N[C@@H](C)c4ccc(-c5scnc5C)cc4)C(C)(C)C)CC3)cc2)N1C(=O)CCl,Activity,[1],55%
COC(=O)[C@H]1Cc2c([nH]c3ccccc23)[C@H](c2ccc(C(=O)N3CCN(CCCCCCCCCN[C@H](C(=O)N4C[C@H](O)C[C@H]4C(=O)N[C@@H](C)c4ccc(-c5scnc5C)cc4)C(C)(C)C)CC3)cc2)N1C(=O)CCl,Activity,[1],39%
Cc1onc(C(=O)N2CCN(C(c3ccc(Cl)cc3)c3ccc(Cl)cc3)CC2)c1[N+](=O)[O-],IC50,[2],630 nM
COC(=O)[C@H]1Cc2c([nH]c3ccccc23)[C@H](c2ccc(C(=O)N3CCN(CCCCCCCCCCCCN[C@H](C(=O)N4C[C@H](O)C[C@H]4C(=O)N[C@@H](C)c4ccc(-c5scnc5C)cc4)C(C)(C)C)CC3)cc2)N1C(=O)CCl,Activity,[1],60%
COC(=O)c1ccc([C@H]2c3[nH]c4ccccc4c3C[C@H](C(=O)OC)N2C(=O)CCl)cc1,Activity,[3],inactive
same,IC50,[4],5520 nM
same,Activity,[5],inactive
same,Activity,[6],inactive
same,IC50,[2],50 nM
same,IC50,[7],130 nM
same,IC50,[8],7750 nM
same,Activity,[9],Active
COC(=O)[C@H]1Cc2c([nH]c3ccccc23)[C@H](c2ccc(C(=O)N3CCN(CCCCCCCCCCCCCN[C@H](C(=O)N4C[C@H](O)C[C@H]4C(=O)N[C@@H](C)c4ccc(-c5scnc5C)cc4)C(C)(C)C)CC3)cc2)N1C(=O)CCl,Activity,[1],63%
same,Activity,[10],100%
same,Activity,[11],82.7%
same,Activity,[12],100%
same,Activity,[3],inactive
same,Activity,[13],Active
same,Activity,[14],Active
same,Activity,[15],92.5%
same,Activity,[16],Dose-Dependent Effect
same,EC50,[17],136 nM
same,Activity,[18],Dose-Dependent Effect
same,EC50,[19],42.7 nM
same,IC50,[4],1560 nM
same,Activity,[20],Active
same,Activity,[21],Dose-Dependent Effect
same,EC50,[22],25.6 nM
same,Activity,[23],92.1%
same,Activity,[24],Dose-Dependent Effect
same,EC50,[25],23.3 nM
same,Activity,[26],74.8%
same,Activity,[27],100%
same,Activity,[28],Non-Toxic
same,Activity,[5],inactive
same,Activity,[6],Active
same,Activity,[29],91.5%
same,Activity,[30],82.7%
same,IC50,[2],25 nM
same,IC50,[7],58 nM
same,Activity,[31],inactive
same,IC50,[8],2100 nM
same,Activity,[32],inactive
same,Activity,[33],88.5%
same,Activity,[34],inactive
same,Activity,[35],inactive
same,Activity,[9],Active
same,Activity,[36],Active
same,Activity,[37],Active
COC(=O)[C@H]1Cc2c([nH]c3ccccc23)[C@H](c2ccc(C(=O)N3CCN(CCCCCCCN[C@H](C(=O)N4C[C@H](O)C[C@H]4C(=O)N[C@@H](C)c4ccc(-c5scnc5C)cc4)C(C)(C)C)CC3)cc2)N1C(=O)CCl,Activity,[1],36%
COC(=O)[C@H]1Cc2c([nH]c3ccccc23)[C@H](c2ccc(C(=O)N3CCN(CCCCCCCCCCCN[C@H](C(=O)N4C[C@H](O)C[C@H]4C(=O)N[C@@H](C)c4ccc(-c5scnc5C)cc4)C(C)(C)C)CC3)cc2)N1C(=O)CCl,Activity,[1],52%
